The test system of experiment [1] is Lewis lung carcinoma (LL/2). The experiment is described as follows: Cytotoxicity assay, ATP detection, LL/2. It counts as cell-based, mouse. Particulars: Mus musculus; LL/2 cells in vitro; read-out: ED50 LL/2. The procedure: (§1) The cytotoxicity tests were performed in 96-well microtiter plates (sterile white plates with clear bottom, Corning Costar Corporation, Cambridge, Mass., USA). The anthracyclines were pipetted into the plates in 10 μl of ethanol, pure ethanol was used for control plates. Daunorubicin and aclarubicin were used as positive controls. When the ethanol had evaporated, the cells were seeded into the plates in 100 μl of appropriate medium. The number of cells seeded per well was 2500 with MES-SA, 3000 with MES-SA/D×5, 3000 with LL/2, 2000 with B16-F0 and B16-F1, 2000 with KLN-205 and 8000 with MLTC-1. The ATP content of the cells was measured after incubating the cells for three days at 37° C. with 5% CO2.
(§2) The growth medium was removed by turning the plates over, and 200 μl of ATP extraction reagent, Somalyze, were added to the wells. The plates were then incubated for 30 minutes at room temperature. The ATP measurement was performed with Luminoskan luminometer (Labsystems Oy, Helsinki, Finland) at 22° C. 20 μl of ATP monitoring reagent containing luciferin and luciferase was dispensed, and an integral measurement of 10 s with 2 s lag time was performed for each well. All reagents used were supplied by Bio-Orbit Oy, Turku, Finland.
(§3) The direct luminometer output (in relative light units, RLUS) was used to calculate the cytotoxic effect. This light signal is directly proportional to the amount of […] in a wide range (determined with Bio-Orbit ATP standard, data not shown). On the other hand, the amount of ATP is directly proportional to the amount of living cells (Kangas et al., 1984). The results are expressed as percentages of the control value of untreated cells. An IC50 value (the drug concentration resulting to an ATP signal of 50% of the untreated control signal) was graphically estimated from the % of control vs. drug concentration plot.
(§4) H075-4a was also tested with several mouse cell lines in vitro (all were purchased from ATCC, Rockville, Md., USA): Lewis lung carcinoma (LL/2) (CRL-1642), B16-F0 melanoma (CRL-6322), B16-F1 melanoma (CRL-6323), KLN-205 lung squamous cell carcinoma (CRL-1453) and MLTC-1 leydig cell tumor (CRL-2065) using daunomycin, aclarubicin and H075-1a (MA 144U1) as references.
(§5) All cells grew as monolayers and were cultured at 37° C. with 5% CO2 according to ATCC standard instructions for each cell line: LL/2 in Dulbecco's modified Eagle's medium with 4.5 g/l glucose and 10% FCS, B16-F0 and B16-F1 in MEM (Eagle) in Earle's BSS with non-essential amino acids and 10% FCS, KLN-205 in MEM (Eagle) in Earle's BSS with non-essential amino acids and 10% FCS, MLTC-1 in RPMI 1640 with 25 mM HEPES and 10% FBS. All media were purchased from Gibco BRL, the serum was Gibco BRL Foetal Bovine Serum. […]

For experiment [2], the system named is MES-SA/D×5 uterine sarcoma cells (doxorubicin-resistant, MDR). Kind of experiment: Cytotoxicity assay, luminescence ATP detection, MES-SA/D×5. It counts as cell-based, human. Particulars: Homo sapiens, 72 h; MES-SA/D×5 cells, three days incubation, ATP content; highest concentration 10^-5 M; read-out: ED50 (nM) MES-SA/D × 5. The procedure:
(§6) The cytotoxicities of the new anthracyclines were tested in vitro with two cell lines: human uterine sarcomas MES-SA (CRL-1976; American Type Culture Collection (ATCC), Rockville, Md., USA) and MES-SA/D×5 (CRL-1977; ATCC, Rockville, Md., USA). MES-SA/D×5 has been developed by growing MES-SA cells in increasing concentrations of doxorubicin (Harker and Sikic, 1985).
(§7) Monolayer cultures were grown in McCoy's 5A medium with L-glutamine (Gibco BRL) supplemented with 10% FBS (Foetal Bovine Serum, Gibco BRL). No antibiotics were added. As the resistance is stable for at least 20 passages, the MES-SA/D×5 cells were grown without anthracycline selection (Harker and Sikic, 1985). Cells were maintained at 37° C. with 5% CO2 and subcultured every 3-5 days.
as §1, §2, §3

Experiment [3] has as its system MES-SA human uterine sarcoma cells. The experiment is described as follows: Cytotoxicity assay, luminescence ATP detection, MES-SA. It counts as cell-based. Particulars: Homo sapiens, 72 h, three days incubation, ATP content, highest concentration 10^-5 M, read-out: ED50 (nM) MES-SA. The protocol:
as §6, §7, §1, §2, §3

Experiment [4] deals with KLN-205 lung squamous cell carcinoma. The experiment is described as follows: Cytotoxicity assay, ATP detection, KLN-205. Format: cell-based, mouse. The note with it: Mus musculus; KLN-205 cells in vitro; read-out: ED50 KLN-205. The procedure:
as §1, §2, §3, §4, §5

A further experiment has as its system B16-F0 melanoma. Kind of experiment: Cytotoxicity assay, ATP detection, B16-F0. Format: cell-based, mouse. The note with it: Mus musculus, B16F0; B16-F0 cells in vitro; read-out: ED50 B16-F0. The protocol: as §1, §2, §3, §4, §5
Experiment [5] has as its system L1210 mouse lymphocytic leukemia cells. Kind of experiment: Flow cytometry (mode of action), cell cycle phases. The note with it: for G1 (%) / G2 (%) / S + M (%) / Cells (1000/ml): L1210 cells, 24 h incubation; for G1 (%): percentage of cells in phase G1; for G2 (%): percentage of cells in phase G2; for S + M (%): percentage of cells in phases S + M; for Cells (1000/ml): starting cell number 46000 cells/ml. It counts as cell-based. The procedure:
L1210 mouse lymphocytic leukemia cells growing in suspension culture were maintained at exponential growth in Dulbecco's modified Eagle's medium with 4.5 g/l glucose and 10% FBS, at 37° C. with 5% CO2. The experiments were started by adding the ethanol-dissolved anthracyclines, in amounts yielding to the appropriate final concentrations, to 25 cm^2 cell culture flasks. After the ethanol had evaporated, 5 ml of an approximately 50 000 cells per ml suspension was added to the flasks. Flow cytometric analysis was made of the original cell suspension and after one, two and three days incubation with or without the drugs.
Cells were prepared for flow cytometric DNA analysis according to the method of Vindelov et al. (1985). The analysis was performed with an Epics XL flow cytometer (Coulter Corporation, Miami, Fla.). Samples were illuminated with a […] air-cooled argon ion laser (488 nm) and the fluorescence of propidium iodide was detected through 620-nm band pass filter. The number of cells in each sample was separately counted by adding an internal calibrator (50 μl of a solution containing 1×10^6 Fluoresbrite beads/ml) to 50 μl of cell suspension.
Based on the flow cytometric studies, the cell cycle phases for the cells studied could be detected. Phase G1 is the stage for RNA and protein synthesis, but not for replication. Transition from phase G1 to phase S means the initiation of replication, and the phase will last until all of the DNA has been replicated. The period from phase S up to mitosis (M) is phase G2.

The next experiment deals with MLTC-1 leydig cell tumor. The experiment is described as follows: Cytotoxicity assay, ATP detection, MLTC-1. It counts as cell-based, mouse. Particulars: Mus musculus, Leydig; MLTC-1 cells in vitro; read-out: ED50 MLTC-1. The procedure: as §1, §2, §3, §4, §5
The test system of another experiment is B16-F1 melanoma. The experiment is described as follows: Cytotoxicity assay, ATP detection, B16-F1. Particulars: Mus musculus; B16-F1 cells in vitro; read-out: ED50 B16-F1. Format: cell-based, mouse. The procedure:
as §1, §2, §3, §4, §5

In another experiment the test system is SK-N-MC. Kind of experiment: Cytotoxicity assay, ATP detection, SK-N-MC. Format: cell-based. The note with it: SK-N-MC cells in vitro; read-out: ED50 SK-N-MC.
In experiment [6] the test system is MES-SA/D×5 uterine sarcoma cells (doxorubicin-resistant, MDR). The note with it: relative to MES-SA; Harker and Sikic, 1985; cited from earlier work.

Here are results for two compounds from patent US6399583B1, “Hybrid anthracyclines from genetically engineered streptomyces galilaeus strains, process for production and uses thereof” (Galilaeus Oy, priority 1998, dated 2002).

For `CC[C@@]1(O)C[C@H](O[C@H]2C[C@H](N(C)C)[C@H](O[C@H]3C[C@H](O)[C@H](O[C@H]4CCC(=O)[C@H](C)O4)[C@H](C)O3)[C@H](C)O2)c2c(cc3c(c2O)C(=O)c2c(O)cccc2C3=O)[C@H]1C(=O)OC` [Aclarubicin], the EC50 is 5 nM in [1]; 12 nM in [2]; 2 nM in [3]; 12 nM in experiment [4]; 3 nM in the experiment with B16-F0 melanoma; 70 nM in the experiment on MLTC-1 leydig cell tumor. Further, the EC50 in the experiment with B16-F1 melanoma was determined as 4 nM; in the experiment with SK-N-MC it was 9 nM. Besides, the “G1 (%)” value in experiment [5] (concentration 1 × 10^−8M) is 43%; in experiment [5] (concentration 3.3 × 10^−8M) it was 47%. In addition, the “G2 (%)” value worked out at 14% in [5] (concentration 1 × 10^−8M) and 29% in experiment [5] (concentration 3.3 × 10^−8M). For the same compound, the “S + M (%)” value came out at 43% in [5] (concentration 1 × 10^−8M) and 24% in [5] (concentration 3.3 × 10^−8M). The “Cells (1000/ml)” value in experiment [5] (concentration 1 × 10^−8M) was 101 1000/ml; in experiment [5] (concentration 3.3 × 10^−8M) it was 78 1000/ml. Moreover, the “cell cycle phase in which cells are arrested” value in experiment [5] (flow cytometric DNA analysis) is recorded as “phase G1”.

For `COc1cccc2c1C(=O)c1c(O)c3c(c(O)c1C2=O)C[C@@](O)(C(=O)CO)C[C@@H]3O[C@H]1C[C@H](N)[C@H](O)[C@H](C)O1` [doxorubicin], the “resistance of MES-SA/D×5 variant to doxorubicin” value in experiment [6] is 100 fold.
